Active and inactive are the calls of the source. No cut-off for these calls is given here.
How the values were obtained:
[1] = tested on: SH-SY5Y; experiment: Neuroprotective activity against amyloid beta(25 to 35)-induced neurotoxicity in human SH-SY5Y cells assessed as cell viability at 10 uM (reference value: 62.1 +/- 2.2%); type: functional; conditions: for viability at 10 µM: read-out: Activity
[2] = tested on: SH-SY5Y; experiment: Neuroprotective activity against H2O2-induced neurotoxicity in human SH-SY5Y cells; type: functional, cell-based
[3] = tested on: SH-SY5Y; experiment: Neuroprotective activity against oxygen glucose deprivation-induced neurotoxicity in human SH-SY5Y cells; type: functional, cell-based
[4] = tested on: SH-SY5Y; experiment: Cytotoxicity against human SH-SY5Y cells assessed as cell viability by MTT assay; type: cell-based
[5] = tested on: SH-SY5Y; experiment: Cytotoxicity against human SH-SY5Y cells assessed as cell proliferation by SRB assay; type: cell-based
[6] = tested on: SH-SY5Y; experiment: Neuroprotective activity against amyloid beta(25 to 35)-induced neurotoxicity in human SH-SY5Y cells assessed as cell viability at 10 uM by SRB assay; type: functional, cell-based

Compound	Activity [1]	Activity [2]	Activity [3]	viability at 10 µM [1] [%]	Activity [4]	Activity [5]	Activity [6]
Cc1cccc([C@@H]2O[C@@H](C)Cn3c2c(C)c2ccccc23)c1	inactive	inactive	inactive	–	–	–	–
COc1ccccc1[C@H]1O[C@@H](C)Cn2c1c(C)c1ccccc12	inactive	inactive	inactive	–	–	–	–
CCc1ccc([C@@H]2O[C@@H](C)Cn3c2c(C)c2ccccc23)cc1	inactive	inactive	inactive	–	–	–	–
Cc1c2n(c3ccccc13)C[C@H](C)O[C@@H]2c1ccc(C(C)(C)C)cc1	–	inactive	inactive	84.5	–	–	–
Cc1ccccc1[C@H]1O[C@@H](C)Cn2c1c(C)c1ccccc12	inactive	inactive	inactive	–	–	–	–
Cc1c2n(c3ccccc13)C[C@H](C)O[C@H]2c1ccc(C(C)(C)C)cc1	–	inactive	inactive	92.1	Non-toxic	Non-toxic	Active
Cc1c2n(c3ccccc13)C[C@H](C)O[C@@H]2c1ccc(F)cc1	inactive	inactive	inactive	–	–	–	–
Cc1c2n(c3ccccc13)C[C@H](C)O[C@H]2c1ccc(CC(C)C)cc1	–	inactive	inactive	96.2	Non-toxic	Non-toxic	Active
Cc1c2n(c3ccccc13)C[C@@H](C)O[C@@H]2c1ccccc1	inactive	inactive	inactive	–	–	–	–
Cc1c2n(c3ccccc13)C[C@@H](C)O[C@H]2c1ccc(F)cc1	–	inactive	inactive	90.6	Non-toxic	Non-toxic	Active
Cc1c2n(c3ccccc13)C[C@H](C)O[C@@H]2c1cccs1	inactive	inactive	inactive	–	–	–	–
Cc1c2n(c3ccccc13)C[C@H](C)O[C@H]2c1cccs1	inactive	inactive	inactive	–	–	–	–
COc1ccccc1[C@@H]1O[C@@H](C)Cn2c1c(C)c1ccccc12	–	inactive	inactive	77.7	–	–	–
Cc1c2n(c3ccccc13)C[C@@H](C)O[C@@H]2c1ccc(F)cc1	inactive	inactive	inactive	–	–	–	–
Cc1c2n(c3ccccc13)C[C@H](C)O[C@H]2c1ccc(F)cc1	inactive	inactive	inactive	–	–	–	–
Cc1c2n(c3ccccc13)C[C@H](C)O[C@H]2c1ccc(C(F)(F)F)cc1	inactive	inactive	inactive	–	–	–	–
CCc1ccc([C@H]2O[C@@H](C)Cn3c2c(C)c2ccccc23)cc1	–	inactive	inactive	93	Non-toxic	Non-toxic	Active
COc1cc([C@H]2O[C@@H](C)Cn3c2c(C)c2ccccc23)cc(OC)c1OC	inactive	inactive	inactive	–	–	–	–

Compound	Activity [1]	Activity [2]	Activity [3]	viability at 10 µM [1] [%]	Activity [4]	Activity [5]	Activity [6]
Cc1ccc([C@@H]2O[C@@H](C)Cn3c2c(C)c2ccccc23)cc1	inactive	inactive	inactive	–	–	–	–
Cc1c2n(c3ccccc13)C[C@@H](C)O[C@H]2c1ccccc1	inactive	inactive	inactive	–	–	–	–
Cc1c2n(c3ccccc13)C[C@H](C)O[C@@H]2c1ccc(CC(C)C)cc1	–	inactive	inactive	108	Non-toxic	Non-toxic	Active
Cc1ccc([C@H]2O[C@@H](C)Cn3c2c(C)c2ccccc23)cc1	inactive	inactive	inactive	–	–	–	–
COc1cccc([C@H]2O[C@@H](C)Cn3c2c(C)c2ccccc23)c1	inactive	inactive	inactive	–	–	–	–
Cc1c2n(c3ccccc13)C[C@H](C)O[C@H]2c1ccccc1	inactive	inactive	inactive	–	–	–	–
Cc1cc(C)cc([C@@H]2O[C@@H](C)Cn3c2c(C)c2ccccc23)c1	–	inactive	inactive	87.1	–	–	–
Cc1c2n(c3ccccc13)C[C@H](C)O[C@@H]2c1ccc(Cl)cc1	–	inactive	inactive	74.4	–	–	–
Cc1cc(C)cc([C@H]2O[C@@H](C)Cn3c2c(C)c2ccccc23)c1	inactive	inactive	inactive	–	–	–	–
Cc1c2n(c3ccccc13)C[C@H](C)O[C@H]2c1ccc(Cl)cc1	inactive	inactive	inactive	–	–	–	–
Cc1cccc([C@H]2O[C@@H](C)Cn3c2c(C)c2ccccc23)c1	inactive	inactive	inactive	–	–	–	–
COc1cc([C@@H]2O[C@@H](C)Cn3c2c(C)c2ccccc23)cc(OC)c1OC	inactive	inactive	inactive	–	–	–	–
O=C(O[C@@H]1Cc2c(O)cc(O)cc2O[C@@H]1c1cc(O)c(O)c(O)c1)c1cc(O)c(O)c(O)c1 [EPIGALOCATECHIN GALLATE]	–	–	–	98.6	–	–	–
Cc1c2n(c3ccccc13)C[C@H](C)O[C@@H]2c1coc2ccccc2c1=O	inactive	inactive	inactive	–	–	–	–
Cc1c2n(c3ccccc13)C[C@H](C)O[C@@H]2c1ccc(C(F)(F)F)cc1	inactive	inactive	inactive	–	–	–	–
Cc1c2n(c3ccccc13)C[C@H](C)O[C@@H]2c1ccccc1	inactive	inactive	inactive	–	–	–	–
COc1cccc([C@@H]2O[C@@H](C)Cn3c2c(C)c2ccccc23)c1	inactive	inactive	inactive	–	–	–	–
Cc1ccccc1[C@@H]1O[C@@H](C)Cn2c1c(C)c1ccccc12	inactive	inactive	inactive	–	–	–	–

— ChEMBL document CHEMBL3826978, “Design, synthesis and biological evaluation of novel chiral oxazino-indoles as potential and selective neuroprotective agents against Aβ25-35-induced neuronal damage” (Bioorg Med Chem Lett, 2016)
